Test results taken from publication PMC6576746, “Rational discovery of dual-indication multi-target PDE/Kinase inhibitor for precision anti-cancer therapy using structural systems pharmacology” (PLoS Computational Biology, 2019).

Assays:
Test in all cases: cells
Design in all cases: species or system panel of human cancer cell lines; Eurofins OncoPanel proliferation; nuclei count by high-content fluorescence imaging, 10-point dose response
D341 Med = conditions: D341 Med, 72 h, cell count, 3 days
In short: (§1)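 Ten half-log concentrations from 100 μM (0.1% DMSO max) applied one day post-seeding, 3-day exposure at 37°C; untreated time-zero plate for GI50. Readout is nuclear cell count by automated fluorescence imaging, giving EC50, IC50, GI50 and 0–10 activity area.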

HOS = conditions: Homo sapiens, HOS, 72 h, cell count, 3 days
In short: as §1

MC116 = conditions: Homo sapiens, MC116, 72 h, cell count, 3 days
In short: as §1

MES-SA = conditions: Homo sapiens, MES-SA, 72 h, cell count, 3 days
In short: as §1

RPMI 6666 = conditions: Homo sapiens, RPMI-6666, 72 h, cell count, 3 days
In short: as §1

SNU-423 = conditions: Homo sapiens, SNU-423, 72 h, cell count, 3 days
In short: as §1

SUP-T1 = conditions: Homo sapiens, SUP-T1, 72 h, cell count, 3 days
In short: as §1

SW403 = conditions: Homo sapiens, SW-403, 72 h, cell count, 3 days
In short: as §1

SW620 = conditions: Homo sapiens, SW-620, 72 h, cell count, 3 days
In short: as §1

SiHa = conditions: Homo sapiens, SiHa, 72 h, cell count, 3 days
In short: as §1

TE 125.T = conditions: 72 h, cell count, 3 days
In short: as §1

TT = conditions: Homo sapiens, TT, 72 h, cell count, 3 days
In short: as §1

Thp1 = conditions: Homo sapiens, THP-1, 72 h, cell count, 3 days
In short: as §1

Y79 = conditions: Homo sapiens, Y79, 72 h, cell count, 3 days
In short: as §1

[1] = 50% of maximum possible response

IC50 (SNU-423; [1]): 19.2 µM
GI50 (SNU-423; corrected for time zero): 16.5 µM
EC50 (SNU-423; curve inflection point): 14.8 µM
IC50 (SW403; [1]): 33.2 µM
GI50 (SW403; corrected for time zero): 14.4 µM
EC50 (SW403; curve inflection point): 28.7 µM
IC50 (SW620; [1]): 19.7 µM
GI50 (SW620; corrected for time zero): 14.9 µM
EC50 (SW620; curve inflection point): 18.7 µM
IC50 (Thp1; [1]): 35.5 µM
GI50 (Thp1; corrected for time zero): 23.1 µM
EC50 (Thp1; curve inflection point): 35.5 µM
SMILES: C[C@@H]1CC(=O)NN=C1c1ccc(NN=C(C#N)C#N)cc1 [levosimendan]
IC50 (D341 Med; [1]): 73.8 µM
GI50 (D341 Med; corrected for time zero): 39.6 µM
EC50 (D341 Med; curve inflection point): 73.8 µM
IC50 (HOS; [1]): 11.4 µM
GI50 (HOS; corrected for time zero): 9.54 µM
EC50 (HOS; curve inflection point): 11.4 µM
IC50 (MC116; [1]): 14.9 µM
GI50 (MC116; corrected for time zero): 13.8 µM
EC50 (MC116; curve inflection point): 14.7 µM
IC50 (MES-SA; [1]): 15.6 µM
GI50 (MES-SA; corrected for time zero): 13.7 µM
EC50 (MES-SA; curve inflection point): 15.6 µM
IC50 (RPMI 6666; [1]): 17.2 µM
GI50 (RPMI 6666; corrected for time zero): 11 µM
EC50 (RPMI 6666; curve inflection point): 17.2 µM
IC50 (SUP-T1; [1]): 15.6 µM
GI50 (SUP-T1; corrected for time zero): 11 µM
EC50 (SUP-T1; curve inflection point): 15.6 µM
IC50 (SiHa; [1]): > 100 µM
GI50 (SiHa; corrected for time zero): 60 µM
EC50 (SiHa; curve inflection point): 41.2 µM
IC50 (TE 125.T; [1]): > 100 µM
GI50 (TE 125.T; corrected for time zero): 71.4 µM
EC50 (TE 125.T; curve inflection point): > 100 µM
IC50 (TT; [1]): > 100 µM
GI50 (TT; corrected for time zero): 14.3 µM
EC50 (TT; curve inflection point): > 100 µM
IC50 (Y79; [1]): 36.2 µM
GI50 (Y79; corrected for time zero): 16 µM
EC50 (Y79; curve inflection point): 32.8 µM
